2 compounds from patent publication US9737525B2, “Small molecule activators of NRF2 pathway” (The General Hospital Corporation, priority 2013, dated 2017) can be followed below.

The test system of test [1] is α-tubulin (lysine K40) acetylation in ST14A cells. The experiment in a line: α-Tubulin acetylation in differentiated ST14A cells. The test is classed as cell-based, rat. The conditions noted are these: mutant HD and wild type ST14A cells, 6 hours. How it is done: Compound bioactivity was tested in the rat embryonic striatal cell lines ST14A, which stably express either a mutant expanded repeat (128Q) or wild type (26Q) 546 amino acid huntingtin (HTT) fragment (a generous gift of E. Cattaneo) (Ehrlich et al., 2001) ST14A cells were propagated at 33° C. in the presence of serum. To induce neuronal differentiation, cells were serum deprived and cultured at 37° C. in the presence of N2 supplement. […]
This increased α-tubulin acetylation in compound-treated cells was consistent with the activity of MIND4 as a SIRT2 inhibitor.

A further test relates to EGFP-NRF2. The experiment in a line: Live-cell imaging of HEK293 cells expressing EGFP-NRF2 and KEAP1-mCherry. The test is classed as cell-based, human. The settings on record: 1 μM for 1 hr. How it is done: To examine the effect of MIND4-17 on the stabilization and sub-cellular localization of NRF2 in live cells, HEK293 cells (200,000 per dish) grown in α-MEM supplemented with 10% heat-inactivated FBS on 6-cm glass dishes, were co-transfected with constructs encoding EGFP-NRF2 and KEAP1-mCherry using Lipofectamine 2000 (Invitrogen) as described [Baird, 2013]. Cells were imaged 24 hr post-transfection before and after 1 hr-exposure to 1 μM MIND4-17. All images were acquired by confocal microscopy using a laser-scanning confocal microscope (LSM780; Carl Zeiss). The microscope was equipped with a thermostated chamber suitable to maintain the live cells and optics at constant 37° C. Imaging was performed using a 63× oil immersion NA 1.4 Plan-Apochromat objective from Zeiss.

Test [2] deals with primary neurons from HD140CAG mice. The experiment in a line: ROS detection assay in primary neurons. The test is classed as cell-based, mouse. The settings on record: 0.1 μM and 0.25 μM, 4 days. How it is done:
Elevated levels of reactive oxygen species (ROS) have been implicated in normal brain aging and in the pathogenesis of numerous neurodegenerative diseases, including HD. The neuroprotective properties of NRF2 activation have been reported to boost antioxidant defenses in astrocytes, but in this study it was determined whether NRF2 induction mediates protective antioxidant activity in mutant Htt expressing primary neurons. It was determined whether NRF2 activation could reduce mHtt associated ROS in primary neurons isolated from embryonic brains (E15-E17) of HD140CAG mice, which display strikingly elevated ROS levels compared to cells derived from wild type mice. HD and wild type neurons were treated with MIND4-17 at 0.1 μM and 0.25 μM doses for 4 days, and ROS were measured.
ROS detection in primary neurons was performed as previously described by [Valencia, 2013]. Briefly, neurons were plated on glass coverslips pretreated with poly-L-lysine for 24 hours. At 4 DIV wild type and HDQ140 neurons were treated with compound MIND4-17 at 4 DIV, then ROS were measured in live cells at 8 DIV. Prior to ROS measurements, neurons were loaded with […] of the non-fluorescent ROS-detector carboxy-DCFDA-AM (Invitrogen) for 15 min at 37° C. […] Images were acquired through a 60× oil immersion Nikon Apo objective DIC H (NA 1/4 1.4) and quantified using ImageJ software (NIH).

The subject of another test is primary astrocytes. In words: IL-6 release from primary astrocytes of wild type and YAC128 mice (ELISA). The test is classed as cell-based, mouse. The settings on record: CSE-stimulated wild type and YAC128 astrocytes. As for the experimental part: Whole brains were obtained from post-natal 1 to 3 day old wild type and YAC128 mouse pups on the FVB/N strain background and placed in Hanks Balanced Salt Solution (HBSS; Invitrogen) on ice. Meninges were removed and the remaining brain tissue was placed into growth medium (DMEM [Invitrogen], 10% FBS [PAA], 1% L-glutamine [Invitrogen], 1% penicillin/streptomycin [Invitrogen]), and homogenized using a 5 ml pipette. Cells of each brain were pelleted, re-suspended in growth medium and transferred into a T150 flask, cultured at 37° C. with 5% CO2. Growth medium was replaced after 24 hr and then every 7 days. After 18 to 21 days in culture, loosely attached microglia were harvested and seeded at 1.4×10^5 cells/ml with pre-incubated conditioned media into 96-well PRIMARIA™ tissue culture plates (BD Falcon). Adherent astrocytes were plated at 1.4×10^5 cells/ml in 10% FBS media for 24 hr in 96-well PRIMARIA™ tissue culture plates. After the initial isolation microglia and astrocytes were seeded at a density of 1.4×10^5 cells/ml into 96-well PRIMARIA™ tissue culture plates. […] Cells were lysed and total protein levels were determined using the microBCA kit (Thermo Scientific). Supernatants were analyzed using mouse IL-6 ELISA (e-Biocience) and IL-6 levels were normalized to total protein levels.
For orientation: An ELISA detects its analyte on a solid surface through an enzyme-linked reagent.

`O=[N+]([O-])c1ccc(Sc2nnc(COc3ccccc3)n2-c2ccccc2)c2ncccc12` [MIND4, 5-nitro-8-{[5-(phenoxymethyl)-4-phenyl-4H-1,2,4-triazol-3-yl]thio}quinoline]: in test [1], the “Acetylation of α-tubulin (lysine K40)” value was “dose dependent increase in acetylation of α-tubulin”.

Take `O=[N+]([O-])c1ccc(Sc2nnc(COc3ccccc3)n2-c2ccccc2)nc1` [MIND4-17]: in the test on EGFP-NRF2, the “Stabilization and sub-cellular localization of NRF2” value is “stabilization and nuclear translocation of EGFP-NRF2”. Moreover, in test [2], the “Basal ROS levels in wild type neurons” value is on record as “No effects on basal ROS levels were detected” and the “ROS levels in HD neurons” value is “significant reduction of ROS”. For the same compound, the IL-6 release entry with primary astrocytes is listed as “dose-response reduction of IL-6 release”.
